Measurements: patent EP0205068B1, “Lysergic-acid amides, process for their preparation and medicaments containing them” (ARZNEIMITTELWERK DRESDEN GmbH, priority 1985, dated 1986)
“And” between values parts separate entries of the source, which are not always exact repeats. Equal values may be shown once.

Legend:
Vena femoralis = test: Contraction of isolated human vessel preparations, vein; parameters: species or system menschlichen
Excerpt: (§1) 6. Untersuchungen an isolierten menschlichen Gefäßpräparaten
(§2) (Vena und Arteria femoralis)
(§3) Glusa, E. und F. Markwardt, Pharmacolgy 24 (1982) 287 sowie Naunyn-Schmiedebergs-Arch. Pharmacol. 323 (1983) 101

Ratten = test: SFT test (spinal cord fixation time); format: in vivo
Excerpt: 4. SFT-Test (Spinal cord fixation time)
C.Giurgea und F.Mouravieff-Lesmisse Arch.Intern.Pharmacodyn.191 (1971) 279
Es ist die Anzahl der Tiere mit persistierender Asymmetrie zur Gesamtzahl der eingesetzten Ratten aufgeführt.

[1] = system: transcallosal ausgelöster Potentiale; test: Influence on transcallosally evoked potentials in awake rats fixed in a stereotactic apparatus; format: in vivo, weiblichen Wistarratten; conditions: 1 mg/kg i.p.
Excerpt: 3. Beeinflussung transcallosal ausgelöster Potentiale
Methodik in Anlehnung an C.Giurgea und F.Moyersoons, Arch.Int.Pharmacodyn.199,(1972) 67
Die Untersuchung wurde an wachen, im stereotaktischen Apparat fixierten weiblichen Wistarratten durchgeführt.

Maus = test: Porsolt swim test (immobility duration); format: in vivo
[2] = system: vas deferens des Meerschweinchens; test: Noradrenaline antagonism on isolated vas deferens; conditions: Cavia porcellus, read-out: Hemmung (x̄ ± sx̄) in %
Excerpt: 5. Noradrenalin-Antagonismus
Noradrenalin-Antagonismus am vas deferens des Meerschweinchens

Arteria femoralis = test: Contraction of isolated human vessel preparations, artery; parameters: species or system menschlichen
Excerpt: as §1, §2, §3

| SMILES | Amplitudenbeeinflussung b.max.Reizintensität neg.Welle ([1]; 60') | Amplitudenbeeinflussung b.max.Reizintensität pos.Welle ([1]; 60') | Amplitudenbeeinflussung b.mittl.Reizintensität neg.Welle ([1]; 60') | Amplitudenbeeinflussung b.mittl.Reizintensität pos.Welle ([1]; 60') | Amplitudenbeeinflussung b.max.Reizintensität neg.Welle ([1]; 120') | Amplitudenbeeinflussung b.max.Reizintensität pos.Welle ([1]; 120') | Amplitudenbeeinflussung b.mittl.Reizintensität neg.Welle ([1]; 120') | Amplitudenbeeinflussung b.mittl.Reizintensität pos.Welle ([1]; 120') | Amplitudenbeeinflussung b.max.Reizintensität neg.Welle ([1]; 180') | Amplitudenbeeinflussung b.max.Reizintensität pos.Welle ([1]; 180') | Amplitudenbeeinflussung b.mittl.Reizintensität neg.Welle ([1]; 180') | Amplitudenbeeinflussung b.mittl.Reizintensität pos.Welle ([1]; 180') | Amplitudenbeeinflussung b.max.Reizintensität neg.Welle ([1]; VW = Vorwert (pre-dose value)) | Amplitudenbeeinflussung b.max.Reizintensität pos.Welle ([1]; VW = Vorwert (pre-dose value)) | Amplitudenbeeinflussung b.mittl.Reizintensität neg.Welle ([1]; VW = Vorwert (pre-dose value)) | Amplitudenbeeinflussung b.mittl.Reizintensität pos.Welle ([1]; VW = Vorwert (pre-dose value)) | Immobilitätsdauer (sec) x̄ ± sx̄ (Maus; 1 mg/kg i.p.) | Immobilitätsdauer (sec) x̄ ± sx̄ (Maus; 3 mg/kg p.o.) | other results |
| --- | --- | --- | --- | --- | --- | --- | --- | --- | --- | --- | --- | --- | --- | --- | --- | --- | --- | --- | --- |
| CC(=O)OCCN(CCOC(C)=O)C(=O)[C@@H]1C[C@@H]2c3cccc4[nH]cc(c34)C[C@H]2N(C)C1 [1 a, 9,10-Dihydrolysergsäure-bis-(β-acetoxyethyl)amid] | 0,40±0,03 µV | 0,42±0,03 µV | 0,23±0,03 µV | *0,26±0,03 µV | *0,40±0,02 µV | 0,41±0,02 µV | *0,25±0,03 µV | *0,27±0,03 µV | 0,39±0,02 µV | 0,42±0,02 µV | 0,23±0,03 µV | *0,25±0,02 µV | 0,34±0,03 µV | 0,38±0,03 µV | 0,18±0,02 µV | 0,19±0,02 µV | 202,6 ± 1,8 sec | – | pharmakologisch wertvolle Nebenwirkungen (Vena femoralis; statement in words): Tonisierung der Venen; Anzahl der Tiere mit persistierender Asymmetrie zur Gesamtzahl der eingesetzten Ratten (Ratten; Dosis ip. 2 mg/kg): 5/10; inhibition at 10 µM ([2]; Konzentration 10^-5 mol/l): 60.7%; inhibition at 1 µM ([2]; Konzentration 10^-6 mol/l): 14.7%; inhibition at 0.1 µM ([2]; Konzentration 10^-7 mol/l): 4.4% |
| CC(=O)OCCN(CCOC(C)=O)C(=O)[C@@H]1C[C@@H]2c3cccc4c3c(cn4C)C[C@H]2N(C)C1 [1 c, 1-Methyl-9,10-dihydrolysergsäure-bis-(ß-acetoxyethyl)-amid] | – | – | – | – | – | – | – | – | – | – | – | – | – | – | – | – | – | 203,6 ± 5,9 sec | – |
| CCC(=O)OCCN(CCOC(=O)CC)C(=O)[C@@H]1C[C@@H]2c3cccc4c3c(cn4C)C[C@H]2N(C)C1 [1 e, 1-Methyl-9,10-dihydrolysergsäure-bis-(ß-propionylethyl)-amid] | – | – | – | – | – | – | – | – | – | – | – | – | – | – | – | – | – | 210,0 ± 3,8 sec | – |
| CC(=O)OCCN(CCOC(C)=O)C(=O)[C@@H]1C[C@@H]2c3cccc4c3c(cn4Cc3cccc(F)c3)C[C@H]2N(C)C1 [1 l, 1-(3'-Fluorbenzyl)-9,10-dihydrolysergsäure-bis-(ß-acetoxyethyl)-amid] | – | – | – | – | – | – | – | – | – | – | – | – | – | – | – | – | 199,4 ± 2,3 sec | – | – |
| CN1C[C@H](C(=O)N[C@]2(C)O[C@@]3(O)[C@@H]4CCCN4C(=O)[C@H](Cc4ccccc4)N3C2=O)C[C@@H]2c3cccc4[nH]cc(c34)C[C@H]21 [Dihydro-ergo-tamin] | – | – | – | – | – | – | – | – | – | – | – | – | – | – | – | – | – | – | %-Kontraktion bezogen auf NA (Vena femoralis): 61 ± 24% and 52 ± 18%; %-Kontraktion bezogen auf NA (Arteria femoralis): 8,8 ± 8% |
| CO[C@]12C[C@@H](COC(=O)c3cncc(Br)c3)CN(C)[C@@H]1Cc1cn(C)c3cccc2c13 [Nicergolin, 10a-Methoxy-1,6-dimethyl-ergolin-8ß-methanol-(5'-bromnicotinat), reference compound] | 0,41±0,03 µV | 0,40±0,02 µV | 0,24±0,02 µV | 0,24±0,01 µV | 0,38±0,02 µV | 0,36±0,02 µV | 0,23±0,02 µV | 0,22±0,02 µV | 0,39±0,04 µV | 0,39±0,04 µV | 0,21±0,01 µV | 0,19±0,02 µV | 0,39±0,02 µV | 0,39±0,02 µV | 0,23±0,02 µV | 0,23±0,02 µV | 196,7 ± 5,6 sec | – | Anzahl der Tiere mit persistierender Asymmetrie zur Gesamtzahl der eingesetzten Ratten (Ratten; Dosis ip. 1 mg/kg): 2/10; Anzahl der Tiere mit persistierender Asymmetrie zur Gesamtzahl der eingesetzten Ratten (Ratten; Dosis ip. 3 mg/kg): 4/6 |
